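Values below derive from 48-hour exposures of cells grown in 96-well plates, with endpoints linearly interpolated between the two concentrations bracketing the appropriate inhibition level. At the TGI there is no net growth.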
Assays:
Assay in all cases: growth of human tumour cells (NCI), 48 h
[1] = system: NCI-H23 lung
[2] = system: SN12C renal
[3] = system: HCT-116 colon
[4] = system: COLO 205 colon
[5] = system: TK-10 renal
[6] = system: M14 melanoma
[7] = system: M19-MEL melanoma
[8] = system: KM20L2 colon
[9] = system: SF-295 CNS
[10] = system: A498 renal
[11] = system: IGROV1 ovarian
[12] = system: SK-OV-3 ovarian
[13] = system: HCT-15 colon
[14] = system: OVCAR-3 ovarian
[15] = system: K-562 leukemia
[16] = system: SW-620 colon
[17] = system: SNB-19 CNS
[18] = system: EKVX NSCLC
[19] = system: HCC-2998 colon
[20] = system: MOLT-4 leukemia
[21] = system: SK-MEL-28 melanoma
[22] = system: NCI-H522 lung
[23] = system: NCI-H226 lung
[24] = system: A549 NSCLC
[25] = system: KM12 colon
[26] = system: HOP-62 NSCLC
[27] = system: SR leukemia
[28] = system: SNB-75 CNS
[29] = system: SK-MEL-2 melanoma
[30] = system: HL-60(TB) leukemia
[31] = system: HT29 colon
[32] = system: LXFL 529 NSCLC
[33] = system: OVCAR-8 ovarian
[34] = system: MALME-3M melanoma
[35] = system: RXF 393 renal
[36] = system: DMS 114 small cell lung
[37] = system: ACHN renal
[38] = system: CCRF-CEM leukemia
[39] = system: UO-31 renal
[40] = system: CAKI-1 renal
[41] = system: HOP-92 NSCLC
[42] = system: RPMI-8226 leukemia
[43] = system: NCI-H460 lung
[44] = system: UACC-62 melanoma
[45] = system: OVCAR-5 ovarian
[46] = system: SF-539 CNS
[47] = system: LOX IMVI melanoma
[48] = system: UACC-257 melanoma
[49] = system: OVCAR-4 ovarian
[50] = system: DMS 273 small cell lung
[51] = system: SNB-78 CNS
[52] = system: XF 498 CNS
[53] = system: DLD-1 colon
[54] = system: SK-MEL-5 melanoma
[55] = system: 786-0 renal
[56] = system: U251 CNS
[57] = system: SF-268 CNS
[58] = system: MDA-MB-231 breast
[59] = system: NCI/ADR-RES ovarian
[60] = system: DU-145 prostate
[61] = system: MDA-MB-435
[62] = system: MCF7 breast
[63] = system: MDA-N
[64] = system: BT-549 breast
[65] = system: HS 578T breast
[66] = system: PC-3 prostate
[67] = system: T-47D breast

C/C=C/C1(C)/C(=N\O)C(C)(CCC)C(=O)N1O (stereo not given)
TGI [1]: > 100 µM | TGI [2]: > 100 µM | TGI [3]: > 100 µM | TGI [4]: > 100 µM | TGI [5]: > 100 µM | TGI [6]: > 100 µM | TGI [7]: > 100 µM | TGI [8]: > 100 µM | TGI [9]: > 100 µM | TGI [10]: > 100 µM | TGI [11]: > 100 µM | TGI [12]: > 100 µM | TGI [13]: > 100 µM | TGI [14]: > 100 µM | TGI [15]: > 100 µM | TGI [16]: > 100 µM | TGI [17]: > 100 µM | TGI [18]: > 100 µM | TGI [19]: > 100 µM | TGI [20]: > 100 µM | TGI [21]: > 100 µM | TGI [22]: > 100 µM | TGI [23]: > 100 µM | TGI [24]: > 100 µM | TGI [25]: > 100 µM | TGI [26]: > 100 µM | TGI [27]: > 100 µM | TGI [28]: > 100 µM | TGI [29]: > 100 µM | TGI [30]: > 100 µM | TGI [31]: > 100 µM | TGI [32]: > 100 µM | TGI [33]: > 100 µM | TGI [34]: > 100 µM | TGI [35]: > 100 µM | TGI [36]: > 100 µM | TGI [37]: > 100 µM | TGI [38]: > 100 µM | TGI [39]: > 100 µM | TGI [40]: > 100 µM | TGI [41]: > 100 µM | TGI [42]: > 100 µM | TGI [43]: > 100 µM | TGI [44]: > 100 µM | TGI [45]: > 100 µM | TGI [46]: > 100 µM | TGI [47]: > 100 µM | TGI [48]: > 100 µM | TGI [49]: > 100 µM | TGI [50]: > 100 µM | TGI [51]: > 100 µM | TGI [52]: > 100 µM | TGI [53]: > 100 µM | TGI [54]: > 100 µM | TGI [55]: > 100 µM | TGI [56]: > 100 µM

CCc1n[nH]c(=S)n1/N=C/c1ccc(-c2ccc([N+](=O)[O-])cc2)o1
TGI [1]: > 100 µM | TGI [2]: > 100 µM | TGI [3]: > 100 µM | TGI [4]: > 100 µM | TGI [5]: > 100 µM | TGI [6]: > 100 µM | TGI [7]: > 100 µM | TGI [8]: > 100 µM | TGI [9]: > 100 µM | TGI [57]: > 100 µM | TGI [11]: > 100 µM | TGI [12]: > 100 µM | TGI [13]: > 100 µM | TGI [14]: > 100 µM | TGI [15]: > 100 µM | TGI [16]: > 100 µM | TGI [17]: > 100 µM | TGI [19]: > 100 µM | TGI [20]: > 100 µM | TGI [21]: > 100 µM | TGI [22]: > 100 µM | TGI [23]: > 100 µM | TGI [24]: > 100 µM | TGI [25]: > 100 µM | TGI [26]: > 100 µM | TGI [27]: > 100 µM | TGI [28]: > 100 µM | TGI [29]: > 100 µM | TGI [30]: > 100 µM | TGI [31]: > 100 µM | TGI [32]: > 100 µM | TGI [33]: > 100 µM | TGI [34]: > 100 µM | TGI [37]: > 100 µM | TGI [39]: > 100 µM | TGI [40]: > 100 µM | TGI [41]: > 100 µM | TGI [42]: > 100 µM | TGI [43]: > 100 µM | TGI [44]: > 100 µM | TGI [45]: > 100 µM | TGI [46]: > 100 µM | TGI [47]: > 100 µM | TGI [48]: > 100 µM | TGI [49]: > 100 µM | TGI [50]: > 100 µM | TGI [51]: > 100 µM | TGI [52]: > 100 µM | TGI [53]: > 100 µM | TGI [55]: > 100 µM | TGI [56]: > 100 µM

CN(C)C(=S)NC(=S)Nc1ccc2ccccc2c1
TGI [1]: 43.9 µM | TGI [2]: 31.9 µM | TGI [3]: 27 µM | TGI [4]: 39 µM | TGI [5]: > 89.4 µM | TGI [6]: 50.4 µM | TGI [8]: 23.7 µM | TGI [9]: 18.8 µM | TGI [10]: 48.3 µM | TGI [57]: 47.3 µM | TGI [11]: 34.6 µM | TGI [12]: 55.3 µM | TGI [13]: 59.9 µM | TGI [14]: 57.8 µM | TGI [15]: 23.3 µM | TGI [58]: 48.1 µM | TGI [16]: > 75.2 µM | TGI [17]: > 72.1 µM | TGI [59]: 59.6 µM | TGI [18]: 51.1 µM | TGI [19]: 36.6 µM | TGI [20]: 34.4 µM | TGI [21]: 40.3 µM | TGI [22]: 32 µM | TGI [23]: 31.5 µM | TGI [24]: > 31.5 µM | TGI [60]: 77.9 µM | TGI [25]: 37.6 µM | TGI [26]: 46.2 µM | TGI [27]: 35.8 µM | TGI [28]: 62.5 µM | TGI [29]: 41.6 µM | TGI [61]: 68 µM | TGI [62]: 37.1 µM | TGI [30]: 51.7 µM | TGI [63]: 42.1 µM | TGI [31]: 25.3 µM | TGI [32]: 21.9 µM | TGI [33]: 68.8 µM | TGI [34]: 35.1 µM | TGI [35]: 65.8 µM | TGI [37]: > 83 µM | TGI [64]: 53.9 µM | TGI [38]: 10.5 µM | TGI [39]: 48 µM | TGI [40]: 65.3 µM | TGI [41]: 48.1 µM | TGI [42]: 45 µM | TGI [43]: 22.4 µM | TGI [44]: 26.9 µM | TGI [45]: 60.1 µM | TGI [46]: 31.6 µM | TGI [47]: 19.6 µM | TGI [48]: 24.2 µM | TGI [49]: > 100 µM | TGI [50]: 14.1 µM | TGI [65]: 97.8 µM | TGI [51]: 77.5 µM | TGI [52]: 33.3 µM | TGI [66]: 38.3 µM | TGI [67]: 46 µM | TGI [54]: 25 µM | TGI [55]: > 64.8 µM | TGI [56]: > 46.9 µM

N#C/C(=C/c1cccc2ccccc12)C(=O)c1ccccc1
TGI [1]: 32.2 µM | TGI [2]: 85.6 µM | TGI [3]: 34.4 µM | TGI [5]: > 100 µM | TGI [6]: 30.6 µM | TGI [7]: 86.6 µM | TGI [8]: 37.1 µM | TGI [9]: 44.4 µM | TGI [10]: 55.3 µM | TGI [11]: 54.8 µM | TGI [12]: > 100 µM | TGI [13]: 39.3 µM | TGI [14]: > 100 µM | TGI [15]: > 10 µM | TGI [16]: 32 µM | TGI [17]: 41.6 µM | TGI [18]: > 10 µM | TGI [19]: 49.2 µM | TGI [20]: 38.2 µM | TGI [21]: 30 µM | TGI [22]: 54.6 µM | TGI [23]: 47.9 µM | TGI [24]: > 10 µM | TGI [25]: 43.2 µM | TGI [26]: 41.1 µM | TGI [27]: 88.3 µM | TGI [29]: 41.6 µM | TGI [30]: 46.9 µM | TGI [31]: > 100 µM | TGI [33]: > 100 µM | TGI [34]: 47.6 µM | TGI [36]: > 100 µM | TGI [37]: > 10 µM | TGI [38]: 39 µM | TGI [39]: 35.9 µM | TGI [40]: > 100 µM | TGI [42]: 69.6 µM | TGI [43]: 78.2 µM | TGI [44]: 38.4 µM | TGI [45]: 50.1 µM | TGI [46]: 34.9 µM | TGI [47]: 39.3 µM | TGI [48]: > 10 µM | TGI [49]: > 100 µM | TGI [51]: > 100 µM | TGI [52]: 39.3 µM | TGI [54]: > 10 µM | TGI [55]: 30.3 µM | TGI [56]: 37.9 µM

From PubChem BioAssay (NCI)
